Experimental data published in BindingDB's records for doi:10.1021/jm960288w (Drew University, 1997).

Assay: Compound was tested for inhibition of [3H]WIN-35428 binding at the dopamine transporter in brain from guinea pig striatal membrane

SMILES	IC50
OC1(c2ccc(Cl)cc2)c2ccccc2C2=NCCCN21 (configuration not stated) [9-(4-Chloro-phenyl)-1,2,3,9-tetrahydro-4,9a-diaza-fluoren-9-ol]	4.2 nM
OC1(c2ccc(Cl)cc2)c2ccccc2C2=NCCCCN21 (configuration not stated) [7-(4-Chloro-phenyl)-2,4,5,7-tetrahydro-3H-[1,3]diazepino[2,1-a]isoindol-7-ol]	2.7 nM
